Laboratory results as given in patent US11826355B1, “Aspirin-mimetic antioxidants for treatment of age-related cataract” (priority 2022, dated 2023).
Where “and” joins values, the source holds several entries; their conditions need not be identical. Equal entries are not always repeated.

How the values were obtained:
prostate cancer = conditions: 2008 SELECT RCT; cited from earlier work
[1] = tested on: Wistar rat cataract model induced by sodium selenite; assay: Lens opacity score (slit lamp) in sodium selenite-induced cataract rat model; assay type: in vivo; design: lens opacity score, Mean / lens opacity score / lens opacity score, raw data per eye (OD/OS, rats 1-6): scale not given here; conditions: G1, 0.8 mg/15 mL, 10 μl 3 times/day
Protocol: A new batch of eye drops solutions was prepared every week. Placebo was a solution that contained the same excipients but without the drug compound. The eye drops solutions were prepared as follows:
3. An illustrative procedure: To a 250 mL volume flask were added 25 mg each of the excipients, sodium borate, boric acid, sodium chloride, and potassium chloride, an aspirin mimetic drug compound to be tested (e.g., DPL-004, 9.0 mg), and about 200 ml of sterilized water to form a mixture. The resultant mixture was shaken well to dissolve solids; and more sterilized water was added to bring the volume of solution to 250 mL, which was shaken well and then distributed into small portions. Each portion was labeled with a concentration of 3.6 mg/100 mL and the preparation date and was stored in a refrigerator for future use.
4. Eye drops solutions comprising DPL-004 at a concentration of 36 mg/100 mL and 12 mg/100 mL were prepared similarly according to the above procedure by using 90 mg and 30 mg of DPL-004, respectively, while maintaining the same amounts of excipients as shown above.
(§1) At the age of 11-12 days after birth, all suckling rats underwent a single intraperitoneal injection of sodium selenite (30 μmol/kg, i.e., 0.1 ml/10 g) for model-building. Sodium selenite solution was configured with normal saline at a concentration of 3 mM.
(§2) At the age of 19 days after birth (D-1) of the suckling rats, 30 lens opacities were selected for a cloudy rating at Class 4 or 5; Wister suckling rats were randomly divided into 5 groups (G1-G5 groups, 6 in each group); and a cage of suckling rats as G6 was randomly selected after the animals opened their eyes (14-16 days of age).
(§3) The subject suckling rats of groups G1 to G5 were treated at the age of 20 days after birth (D1), and the specific dosing information is shown in Table 1. Treatment in the G6 group was conducted after the animals opened their eyes (14-16 days old, D-6-D-4), and the specific dosing information is shown in Table 1.
At D-1, in the fourth week of treatment, the slit lamp was used at the end of administration to observe the turbidity of the lens and grade it, and the grading and scoring criteria are shown in the following Table 2.

[2] = General clinical observations during 60-day eye drop administration; assay type: in vivo, rat; conditions: eye drops 3 times/day, 60-day administration phase, all concentrations
From the text: as §2

[3] = Body weight of rats in the cataract model study; assay type: in vivo, rat; conditions: G1, 0.8 mg/15 mL, 10 μl 3 times/day
Protocol: as §1, §2, §3

[4] = tested on: acute ischemia stroke (AIS) and/or ALS; conditions: approved for acute ischemia stroke (AIS) and/or ALS; cited from earlier work
lung cancer = conditions: 1994 ATBC RCT; cited from earlier work
[5] = pH about 6.4, day -1 (before administration)

Cc1c(C)c2c(c(C)c1O)CC[C@@](C)(CCC[C@H](C)CCC[C@H](C)CCCC(C)C)O2 [Vitamin E]
Adverse Effects: more prostate cancer (prostate cancer): 17% more prostate

O=C(O)c1cc(O)c2c3nc4ccccc4oc-3cc(=O)c2n1 [Pirenoxine, reference compound]
lens opacity score, Mean ([1]; pH about 6.4, day 28): 3.42
lens opacity score, raw data per eye (OD/OS, rats 1-6) ([1]; pH about 6.4, day 28): 3 and 4
lens opacity score, Mean ([1]; pH about 6.4, day 60): 2.92
lens opacity score, raw data per eye (OD/OS, rats 1-6) ([1]; pH about 6.4, day 60): 2 and 4 and 3
lens opacity score, Mean [1, 5]: 4.00
lens opacity score, raw data per eye (OD/OS, rats 1-6) [1, 5]: 4
abnormal symptoms (activity status, body weight, skin hair, secretion morphology and color) [2]: no abnormal symptoms
Body Weight, Mean ([3]; pH about 6.4, day 4): 57.07 g
Body Weight, Mean ([3]; pH about 6.4, day 11): 96.02 g
Body Weight, Mean ([3]; pH about 6.4, day 18): 133.87 g
Body Weight, Mean ([3]; pH about 6.4, day 25): 163.00 g
Body Weight, Mean ([3]; pH about 6.4, day 32): 197.18 g
Body Weight, Mean ([3]; pH about 6.4, day 39): 219.45 g
Body Weight, Mean ([3]; pH about 6.4, day 46): 239.75 g
Body Weight, Mean ([3]; pH about 6.4, day 53): 255.82 g
Body Weight, Mean ([3]; pH about 6.4, day 60): 270.00 g
Body Weight, Mean [3, 5]: 43.48 g

CC1=NN(c2ccccc2)C(=O)C1 [Edaravone]
efficacy (marginal) [4]: 5%

CC1=C(/C=C/C(C)=C/C=C/C(C)=C/C=C/C=C(C)/C=C/C=C(C)/C=C/C2=C(C)CCCC2(C)C)C(C)(C)CCC1 [Beta-carotene only, Beta-carotene]
Adverse Effects: more lung cancer (lung cancer): 18% more lung
